Data reported in ChEMBL document CHEMBL1697781, “Assessment of the health effects of chemicals in humans: II. Construction of an adverse effects database for QSAR modeling” (Curr Drug Discov Technol, 2004).

Columns and labels:
Conditions in all cases: human
[1] = system: Hepatotoxicity; test: FDA HLAED, liver enzyme composite activity
[2] = system: Hepatotoxicity; test: FDA HLAED, alkaline phosphatase increase
[3] = system: Hepatotoxicity; test: FDA HLAED, serum glutamic oxaloacetic transaminase (SGOT) increase
[4] = system: Hepatotoxicity; test: FDA HLAED, serum glutamic pyruvic transaminase (SGPT) increase
[5] = system: Hepatotoxicity; test: FDA HLAED, lactate dehydrogenase (LDH) increase
[6] = system: Hepatotoxicity; test: FDA HLAED, gamma-glutamyl transferase (GGT) increase
Wherever GGT Increase - Index Value is given: reference of the scale not given here.
Wherever LDH Increase - Index Value is given: reference of the scale not given here.

## CCCCNc1cc(C(=O)O)cc(S(N)(=O)=O)c1Oc1ccccc1 [BUMETANIDE]
[1]
  Composite Activity - Active: 0
  Composite Activity - Marginal: 0
  Composite Activity - Score: Inactive
[2]
  Alkaline Phosphatase Increase - Activity Score: Inactive
  Alkaline Phosphatase Increase - Index Value: 0
  Alkaline Phosphatase Increase - Number of Reports: < 4
[3]
  SGOT Increase - Activity Score: Inactive
  SGOT Increase - Index Value: 0
  SGOT Increase - Number of Reports: < 4
[4]
  SGPT Increase - Activity Score: Inactive
  SGPT Increase - Index Value: 0
  SGPT Increase - Number of Reports: < 4
[5]
  LDH Increase - Activity Score: Inactive
  LDH Increase - Index Value: 0
  LDH Increase - Number of Reports: < 4
[6]
  GGT Increase - Activity Score: Inactive
  GGT Increase - Index Value: 0
  GGT Increase - Number of Reports: < 4

## CC(C)c1cccc(C(C)C)c1O [PROPOFOL]
[1]; Liver
  Composite Activity - Active: 0
  Composite Activity - Marginal: 0
  Composite Activity - Score: Inactive
[2]
  Alkaline Phosphatase Increase - Activity Score: Inactive
  Alkaline Phosphatase Increase - Index Value: 0.4
  Alkaline Phosphatase Increase - Number of Reports: >= 4
[3]
  SGOT Increase - Activity Score: Inactive
  SGOT Increase - Index Value: 0.7
  SGOT Increase - Number of Reports: >= 4
[4]
  SGPT Increase - Activity Score: Inactive
  SGPT Increase - Index Value: 0.5
  SGPT Increase - Number of Reports: >= 4
[5]
  LDH Increase - Activity Score: Inactive
  LDH Increase - Index Value: 0.5
  LDH Increase - Number of Reports: >= 4
[6]
  GGT Increase - Activity Score: Inactive
  GGT Increase - Index Value: 0.1
  GGT Increase - Number of Reports: < 4

## COCCCC/C(=N\OCCN)c1ccc(C(F)(F)F)cc1 [FLUVOXAMINE]
[1]
  Composite Activity - Active: 2
  Composite Activity - Marginal: 0
  Composite Activity - Score: Active
[2]
  Alkaline Phosphatase Increase - Activity Score: Inactive
  Alkaline Phosphatase Increase - Index Value: 2.7
  Alkaline Phosphatase Increase - Number of Reports: >= 4
[3]
  SGOT Increase - Activity Score: Active
  SGOT Increase - Index Value: 8.9
  SGOT Increase - Number of Reports: >= 4
[4]
  SGPT Increase - Activity Score: Active
  SGPT Increase - Index Value: 8.9
  SGPT Increase - Number of Reports: >= 4
[5]
  LDH Increase - Activity Score: Inactive
  LDH Increase - Index Value: 2.1
  LDH Increase - Number of Reports: < 4
[6]
  GGT Increase - Activity Score: Inactive
  GGT Increase - Index Value: 1.4
  GGT Increase - Number of Reports: < 4

## CNCCC(Oc1ccc(C(F)(F)F)cc1)c1ccccc1 (stereo not drawn) [FLUOXETINE]
[1]
  Composite Activity - Active: 3
  Composite Activity - Marginal: 2
  Composite Activity - Score: Active
[2]
  Alkaline Phosphatase Increase - Activity Score: Active
  Alkaline Phosphatase Increase - Index Value: 4.7
  Alkaline Phosphatase Increase - Number of Reports: >= 4
[3]
  SGOT Increase - Activity Score: Active
  SGOT Increase - Index Value: 9.6
  SGOT Increase - Number of Reports: >= 4
[4]
  SGPT Increase - Activity Score: Active
  SGPT Increase - Index Value: 8.7
  SGPT Increase - Number of Reports: >= 4
[5]
  LDH Increase - Activity Score: Marginally Active
  LDH Increase - Index Value: 3.2
  LDH Increase - Number of Reports: >= 4
[6]
  GGT Increase - Activity Score: Marginally Active
  GGT Increase - Index Value: 3.3
  GGT Increase - Number of Reports: >= 4

## NCCCNCCSP(=O)(O)O [AMIFOSTINE]
[1]; Liver
  Composite Activity - Active: 0
  Composite Activity - Marginal: 0
  Composite Activity - Score: Inactive
[2]
  Alkaline Phosphatase Increase - Activity Score: Inactive
  Alkaline Phosphatase Increase - Index Value: 0
  Alkaline Phosphatase Increase - Number of Reports: < 4
[3]
  SGOT Increase - Activity Score: Inactive
  SGOT Increase - Index Value: 0
  SGOT Increase - Number of Reports: < 4
[4]
  SGPT Increase - Activity Score: Inactive
  SGPT Increase - Index Value: 0
  SGPT Increase - Number of Reports: < 4
[5]
  LDH Increase - Activity Score: Inactive
  LDH Increase - Index Value: 41.5
  LDH Increase - Number of Reports: < 4
[6]
  GGT Increase - Activity Score: Inactive
  GGT Increase - Index Value: 0
  GGT Increase - Number of Reports: < 4

## CC(=O)OCC(CCn1cnc2cnc(N)nc21)COC(C)=O [FAMCICLOVIR]
[1]
  Composite Activity - Active: 0
  Composite Activity - Marginal: 0
  Composite Activity - Score: Inactive
[2]
  Alkaline Phosphatase Increase - Activity Score: Inactive
  Alkaline Phosphatase Increase - Index Value: 0
  Alkaline Phosphatase Increase - Number of Reports: < 4
[3]
  SGOT Increase - Activity Score: Inactive
  SGOT Increase - Index Value: 0
  SGOT Increase - Number of Reports: < 4
[4]
  SGPT Increase - Activity Score: Inactive
  SGPT Increase - Index Value: 0
  SGPT Increase - Number of Reports: < 4
[5]
  LDH Increase - Activity Score: Inactive
  LDH Increase - Index Value: 0
  LDH Increase - Number of Reports: < 4
[6]
  GGT Increase - Activity Score: Inactive
  GGT Increase - Index Value: 0
  GGT Increase - Number of Reports: < 4
